Reference: US6894072B2, “Compounds as NS3-serine protease inhibitors of hepatitis C virus” (Schering Corporation, priority 2002, dated 2005)

biological target: T1, HCV serine protease (Hepatitis C virus genotype 1a, UniProt P27958); assay: Spectrophotometric assay for HCV protease inhibitory activity; format: biochemical; details: procedure of WO 02/08244
T1 construct: Spectrophotometric assay for the HCV serine protease
Method: Assay for HCV Protease Inhibitory Activity: Spectrophotometric Assay: Spectrophotometric assay for the HCV serine protease was performed on the inventive compounds by following the procedure described in PCT Publication No. WO 02/08244 published Jan. 31, 2002. The activity of the compounds in Table 1 is shown in the same Table.

T1 sequence (P27958 1027-1657): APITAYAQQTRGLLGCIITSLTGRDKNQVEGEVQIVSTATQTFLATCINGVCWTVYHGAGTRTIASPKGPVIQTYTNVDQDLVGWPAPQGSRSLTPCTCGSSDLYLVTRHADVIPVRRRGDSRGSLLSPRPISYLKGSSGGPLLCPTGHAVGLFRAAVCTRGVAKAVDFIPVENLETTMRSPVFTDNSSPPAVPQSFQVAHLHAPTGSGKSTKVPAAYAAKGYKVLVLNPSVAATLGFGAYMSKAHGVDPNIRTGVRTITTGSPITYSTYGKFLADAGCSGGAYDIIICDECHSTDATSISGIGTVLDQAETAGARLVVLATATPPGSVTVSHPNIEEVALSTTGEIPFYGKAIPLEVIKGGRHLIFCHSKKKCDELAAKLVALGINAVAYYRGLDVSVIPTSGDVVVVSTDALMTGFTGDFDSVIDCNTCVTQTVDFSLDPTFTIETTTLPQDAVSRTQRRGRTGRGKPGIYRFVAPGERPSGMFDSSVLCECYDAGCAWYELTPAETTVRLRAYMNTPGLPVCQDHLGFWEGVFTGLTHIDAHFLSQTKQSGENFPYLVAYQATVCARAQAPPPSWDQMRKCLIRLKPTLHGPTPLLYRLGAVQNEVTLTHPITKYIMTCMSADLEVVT
T1 sequence (P27958 1658-1711): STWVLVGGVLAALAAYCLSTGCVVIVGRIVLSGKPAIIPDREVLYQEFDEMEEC

SMILES	Activity (binding activity)
CC(C)(C)OC(=O)N[C@H](C(=O)N1CC2C([C@H]1C(=O)NC(CC1CCC1)C(=O)C(=O)N1CCC1)C2(C)C)C1CCCCC1 (stereo partly shown) [Entry 1]	A (Binding activity A: <5 μM)
COC(=O)[C@@H]1CCN1C(=O)C(=O)C(CC1CCC1)NC(=O)[C@@H]1C2C(CN1C(=O)[C@@H](NC(=O)OC(C)(C)C)C1CCCCC1)C2(C)C (stereo partly shown) [Entry 2]	A (Binding activity A: <5 μM)
CC(C)(C)OC(=O)N[C@H](C(=O)N1CC2C([C@H]1C(=O)NC(CC1CCC1)C(=O)C(=O)N1CC[C@H]1C(=O)O)C2(C)C)C1CCCCC1 (stereo partly shown) [Entry 3]	A (Binding activity A: <5 μM)
CC(C)(C)OC(=O)N[C@H](C(=O)N1CC2C([C@H]1C(=O)NC(CC1CCC1)C(=O)C(=O)N1CC[C@H]1C(=O)OCc1ccccc1)C2(C)C)C1CCCCC1 (stereo partly shown) [Entry 4]	A (Binding activity A: <5 μM)
